The nature of this data set: Cold solubility / 4 C storage of commercial fatty acids and their mixtures. Type of data set: physicochemical. Particulars: 1 day, no solvent or surfactant.

Structures are written as SMILES. “Also recorded” adds a separate entry of the source.

We go through one compound from patent US20140170237A1, “ANTIMICROBIAL COMPOSITIONS CONTAINING MIXTURES OF FATTY AND HYDROXYL CARBOXYLIC ACIDS” (priority 2012, published 2014).

Take `CCCCCCCCCCCC(=O)O` [C12, dodecanoic]: the “4 C. Storage, physical state” value is on record as “solid or formed crystals; also recorded: Solid”.
